US9556113B2, “Combination uses of dichloroacetate and oxamate, and their prodrugs, for cancer treatment” (The South Dakota Board of Regents, priority 2014, dated 2017)

Key:
[1] = Chemical stability (hydrolysis) in aqueous acetonitrile, HPLC; type: physicochemical; settings: water:acetonitrile 1:1, ambient temperature, in 4 hours, 0.4 mg/mL
Description: FIG. 15 provides a graph of the hydrolysis of prodrug 1 (FIG. 15A) and prodrug 2 (FIG. 15B) in aqueous acetonitrile solution. Prodrug 1 or prodrug 2 (0.42 mg/mL) in aqueous acetonitrile (H2O:CH3CN=1:1) was stirred at ambient temperature. Aliquots were withdrawn and analyzed for the prodrug by HPLC as described in the experimental section.
Once the two prodrugs were obtained, their chemical stability and metabolic stability were determined. The chemical stability of prodrug 1 and prodrug 2 was determined in aqueous acetonitrile at ambient temperature. The prodrug (0.4 mg/mL) a mixture of water and acetonitrile (1:1) at ambient temperature. Aliquots were taken from the solution periodically and checked by HPLC for the presence of the prodrug. The HPLC analysis was carried out on a Beckman Coulter HPLC (System Gold) system, controlled by a system controller (32 Karat workstation with PC), equipped with a 125 gradient pumping module, a 508 autosampler with a sample cooling system, and a 168 photodiode array detector. The HPLC conditions employed an Apollo C18 column (250 mm×4.6 mm i.d., 5 μm) (Alltech, Deerfield, Ill.) and aqueous acetonitrile (50% with 0.1% TFA) as the mobile phase. The flow rate was 0.8 mL/min and the detection wavelength was 210 nm. Under the condition, the retention time for prodrugs 1 and 2 was 9.83 and 9.87 minutes respectively. […]

[2] = In vivo release of DCA and oxamate from prodrugs, blood LC/MS/MS; design: species or system female C57BL/6 mice; settings: i.p., 7.6 mg/mouse
Description: FIG. 16 provides LC/MS chromatograms derived from blood samples of mice dosed with prodrug 1 (AT-N4-001) (A). Mice were dosed with prodrug 1 (7.6 mg/mouse) by i.p. Blood samples were collected at 5 min and 25 min for mice dosed with prodrug 1 through retro-orbital bleeding with mice under general anesthesia. After protein precipitation by acetonitrile, samples were analyzed by LC/MS/MS. For samples derived from mice dosed with prodrug 1, the electrospray ion source was operated in the negative ionization mode for four minutes to detect DCA and oxamate before switched to the positive ionization mode to detect prodrug 1. Selected reaction monitoring (SRM) was performed to monitor the mass transition of 386→297 (1), 127→83 (DCA) and selected ion monitoring (SIM) was performed to monitor oxamate at the m/z of 88.0.
FIG. 17 provides LC/MS chromatograms derived from blood samples of mice dosed with prodrug 2 (AT-N4-002) (B). Mice were dosed with prodrug 2 (7.6 mg/mouse) by i.p. Blood samples were collected at 5 min and 30 min for a mouse dosed with prodrug 2 through retro-orbital bleeding with mice under general anesthesia. After protein precipitation by acetonitrile, samples were analyzed by LC/MS/MS. For samples derived from mice dosed with prodrug 2, all the parameters were the same as set for prodrug 1 except the electrospray ion source was operated in the negative ionization mode for all the analytes. Prodrug 2 was detected by monitoring the mass transition of 384→126.
In vivo release of the prodrugs was investigated with female C57BL/6 mice. Mice were housed four in a cage and received food and water ad libitum. All mice were used at approximately 7-10 weeks of age and given at least one week break after arrival. All experimental protocols were approved by the Institutional Animal Care and Use Committee at South Dakota State University. A prodrug (1 or 2), suspended in 3% (v/v) Tween 80 in saline (30.4 mg/ml), was administered (7.6 mg/mouse) to mice by i.p. Blood samples were obtained through retro-orbital bleeding with mice under general anesthesia through the use of isoflurane. The blood samples were immediately frozen in liquid nitrogen and stored at −80° C. freezer before LC/MS/MS analysis.
The blood sample was quickly thawed at 37° C. The sample (200 μl) was first mixed with acetonitrile ([…]) and centrifuged at 14000 rpm for 2 min at 4° C. The precipitates were washed with additional acetonitrile (2×200 μl) and centrifuged. […]
LC/MS/MS analysis was completed on a ThermoFinnigan TSQ Quantum Ultra triple quadrupole mass spectrometer coupled with an Agilent Eclipse XDB-C18 column ([…], 5 μm) equipped with an Agilent XDB-C8 guard column. […] Prodrug 2 was detected by monitoring the mass transition of 384→126.

E6E7/Ras MTE cells = test: Clonogenic growth (colony formation); type: cell-based, mouse; settings: 7 days; for number of colonies compared to DCA treated cultures (FIG. 4C): 5 mM prodrug vs 10 mM DCA; for colony size (FIG. 4B): 5 mM prodrugs, 10 mM DCA, vs DMSO
Description: FIG. 4 illustrates prodrugs AT-N4-001 and AT-N4-002 inhibiting cell proliferation and colony growth of E6E7/Ras MTE cells. (A) E6E7/Ras MTE cultures were treated with DMSO (Con), AT-N4-001, or AT-N4-[…] 002 at the indicated concentration for one day. Live cell number was then determined using a trypan blue exclusion assay. (B) E6E7/Ras MTE cells were seeded on 100-mm plate at 500 cells per plate (in triplicate). After one day, cells were treated as indicated and allowed to grow until colonies of untreated controls reached 50 or more cells (7 days). Plates were stained with Coomassie blue to visualize the colonies. (C) Quantification of colonies described in B. Colonies with more than 15 cells were counted.
E6E7/Ras MTE cells are mouse tonsilar epithelial cells that have been transformed by HPV oncogenes E6 and E7 together with activated ras. They form tumors in mice and are a model of human HPV+HNSCC. These cells were treated in culture with either vehicle control (DMSO), AT-N4-001, or AT-N4-002 at concentrations of 1 mM, 2.5 mM and 5 mM for one day. Live cells were counted using a hemocytometer (FIG. 4A). […] The effects of the compounds on clonogenic growth of the cells were also tested. E6/E7/Ras MTE cells were seeded in 100 mm plates in triplicate, and the next day cells were treated with either vehicle control DMSO, 5 mM AT-N4-001, 5 mM AT-N4-002, or 10 mM DCA. DCA was used at a twice the concentration because the prodrugs each carry two molecules of DCA.

SMILES | hydrolysis of prodrug [1] | release of DCA and oxamate in vivo [2] | prodrug in blood samples ([2]; after 25 min) | number of colonies compared to DCA treated cultures (FIG. 4C) (E6E7/Ras MTE cells) | colony size (FIG. 4B) (E6E7/Ras MTE cells) | prodrug in blood samples ([2]; after 30 min)
NC(=O)C(=O)OC(COC(=O)C(Cl)Cl)COC(=O)C(Cl)Cl [AT-N4-001, 2-(2-Amino-2-oxoacetoxy)propane-1,3-diyl bis(2,2-dichloroacetate)] | about 10% | quickly released DCA and oxamate | No prodrug was detected | significantly lower | approximately equal reductions in colony size | –
NC(=O)C(=O)OCC(COC(=O)C(Cl)Cl)OC(=O)C(Cl)Cl (stereo not shown) [AT-N4-002, 3-(2-amino-2-oxoacetoxy)propane-1,2-diyl bis(2,2-dichloroacetate)] | about 10% | quickly released DCA and oxamate | – | significantly lower | approximately equal reductions in colony size | No prodrug was detected
